From ChEMBL document CHEMBL1201862, “PubChem BioAssay data set” (2004)
Active and inactive are the calls of the source.

Tests used:
[1] = target: T1, Calpain-2 catalytic subunit (Sus scrofa, UniProt P43367); test: m-calpain protease blockers, concentration series – biochemical, fluorogenic peptide substrate, dose response (AID 1420); format: functional
T1 sequence (P43367 whole entry): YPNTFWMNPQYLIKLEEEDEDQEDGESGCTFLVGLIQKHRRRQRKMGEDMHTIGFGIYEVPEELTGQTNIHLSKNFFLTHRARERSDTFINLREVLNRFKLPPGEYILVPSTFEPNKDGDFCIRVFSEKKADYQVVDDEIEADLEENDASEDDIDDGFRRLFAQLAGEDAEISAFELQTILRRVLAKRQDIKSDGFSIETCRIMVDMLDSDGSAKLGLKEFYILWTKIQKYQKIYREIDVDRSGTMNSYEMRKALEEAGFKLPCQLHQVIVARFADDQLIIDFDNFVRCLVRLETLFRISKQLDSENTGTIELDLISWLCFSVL

Leucine aminopeptidase = target: T2, Leucine aminopeptidase (Plasmodium falciparum 3D7, UniProt Q8IL11); test: P. falciparum M17LAP inhibitors, primary screen, biochemical, fluorogenic H-Leu-NHMec substrate, 1536-well (AID 1619); format: functional
T2 sequence (Q8IL11 whole entry): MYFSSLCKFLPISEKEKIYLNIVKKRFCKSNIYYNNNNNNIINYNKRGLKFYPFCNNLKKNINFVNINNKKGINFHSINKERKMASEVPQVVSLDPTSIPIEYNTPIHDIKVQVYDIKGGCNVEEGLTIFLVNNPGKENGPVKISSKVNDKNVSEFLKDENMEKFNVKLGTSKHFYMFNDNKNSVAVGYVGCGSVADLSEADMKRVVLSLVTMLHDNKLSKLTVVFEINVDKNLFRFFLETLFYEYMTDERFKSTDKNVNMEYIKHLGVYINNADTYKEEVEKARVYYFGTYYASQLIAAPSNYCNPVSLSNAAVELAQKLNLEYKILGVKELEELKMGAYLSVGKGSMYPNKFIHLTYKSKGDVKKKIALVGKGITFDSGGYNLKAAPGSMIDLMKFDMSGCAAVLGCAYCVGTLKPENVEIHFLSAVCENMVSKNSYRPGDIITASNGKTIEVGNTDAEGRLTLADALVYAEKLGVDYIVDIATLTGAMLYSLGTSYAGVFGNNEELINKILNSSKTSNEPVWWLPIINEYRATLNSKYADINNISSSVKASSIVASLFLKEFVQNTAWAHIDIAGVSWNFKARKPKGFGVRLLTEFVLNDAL

[2] = viability of uninfected HEp-2 cells – cell-based, HTS, cytotoxicity control for RSV inhibitor project, dose response (AID 2410); format: functional; settings: human respiratory syncytial virus
[3] = viability of HCT116 lacking mutant beta-catenin – cell-based, human colon tumor, dose response (AID 1045); format: functional;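 note: HCT116 colon tumor cells with beta catenin knocked out; cells exposed to compound for 60 hours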
Streptococcus = test: GAS UMAA2166 growth inhibition – luminescence, BacTiterGlo, counter-screen for streptokinase expression inhibitor project, dose response (AID 1915); format: functional, organism-based;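 note: potency for reduction of bacterial viability or growth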
[4] = microbe, parasite or virus in culture; format: functional; settings: Mycobacterium tuberculosis
[5] = test system: Streptococcus sp. 'group A'; test: Streptococcus pyogenes SK(-)GAS viability under kanamycin – luminescence, BacTiterGlo, confirmation, counter-screen for streptokinase expression inhibitor project, dose response (AID 1900); format: functional, organism-based
Streptokinase A = target: T3, Streptokinase A (Streptococcus pyogenes serotype M1, UniProt P10520); test: viability-normalized secreted streptokinase activity reduction – plasminogen activation absorbance, OD405, dose response (AID 1914); format: functional, Streptococcus pyogenes M1 GAS;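 note: secreted streptokinase activity via plasminogen activation per viability signal from cell pellet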
T3 sequence (P10520 whole entry): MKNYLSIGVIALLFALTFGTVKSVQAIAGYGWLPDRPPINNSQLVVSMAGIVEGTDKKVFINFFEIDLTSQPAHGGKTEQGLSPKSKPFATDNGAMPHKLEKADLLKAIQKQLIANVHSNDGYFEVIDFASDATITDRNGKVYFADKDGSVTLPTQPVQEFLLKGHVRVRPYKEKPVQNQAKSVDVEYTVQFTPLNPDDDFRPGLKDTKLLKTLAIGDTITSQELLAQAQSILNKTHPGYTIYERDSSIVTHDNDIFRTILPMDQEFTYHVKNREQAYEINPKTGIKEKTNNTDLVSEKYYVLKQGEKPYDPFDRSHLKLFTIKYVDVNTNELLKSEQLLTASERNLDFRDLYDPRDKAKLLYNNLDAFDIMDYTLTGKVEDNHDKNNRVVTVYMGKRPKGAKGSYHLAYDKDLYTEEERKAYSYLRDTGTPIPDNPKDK

[6] = viability of PTEN-deleted HCT116 cells – cell-based, HCT116 PTEN knockout, dose response (AID 1047); format: functional;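 note: HCT116 colon tumor cells with PTEN knocked out; cells exposed to compound for 60 hours before readout; potency for loss of cell viability measured by luminescence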
[7] = P. falciparum Dd2 growth inhibitors, dose response, SYBR Green, cherry-picked samples (AID 1159567); format: functional, cell-based
[8] = target: FAD-linked sulfhydryl oxidase ALR (Homo sapiens, UniProt P55789); test: ALR-catalysed DTT oxidation blockers – biochemical, H2O2 detection, luminescence, cherry-pick, dose response (AID 493248)
Sequence of FAD-linked sulfhydryl oxidase ALR (P55789 whole entry): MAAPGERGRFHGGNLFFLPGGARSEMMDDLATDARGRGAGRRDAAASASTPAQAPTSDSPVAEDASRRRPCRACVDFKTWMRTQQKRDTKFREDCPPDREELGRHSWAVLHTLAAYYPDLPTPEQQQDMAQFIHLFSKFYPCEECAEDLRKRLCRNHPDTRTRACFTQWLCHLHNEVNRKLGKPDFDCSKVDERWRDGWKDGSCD

[9] = Luminescence Cell-Based Dose Retest to Confirm Inhibitors of Cancer Stem Cells. [Related pubchem assays (depositor defined):AID2717, AID2721]; format: functional; settings: Homo sapiens
cells [10] = format: functional, cell-based
cells [11] = format: functional, cell-based; remark: listed apart in the source
Cytochrome P450 2C19 = Cytochrome P450 2C19 (Homo sapiens, UniProt P33261); test: Cytochrome panel assay with activity outcomes. Panel member name: p450-cyp2c19 Compounds with AC50 equal or less than 10 uM are considered active; format: functional; settings: read-out: AC50
Sequence of Cytochrome P450 2C19 (P33261 whole entry): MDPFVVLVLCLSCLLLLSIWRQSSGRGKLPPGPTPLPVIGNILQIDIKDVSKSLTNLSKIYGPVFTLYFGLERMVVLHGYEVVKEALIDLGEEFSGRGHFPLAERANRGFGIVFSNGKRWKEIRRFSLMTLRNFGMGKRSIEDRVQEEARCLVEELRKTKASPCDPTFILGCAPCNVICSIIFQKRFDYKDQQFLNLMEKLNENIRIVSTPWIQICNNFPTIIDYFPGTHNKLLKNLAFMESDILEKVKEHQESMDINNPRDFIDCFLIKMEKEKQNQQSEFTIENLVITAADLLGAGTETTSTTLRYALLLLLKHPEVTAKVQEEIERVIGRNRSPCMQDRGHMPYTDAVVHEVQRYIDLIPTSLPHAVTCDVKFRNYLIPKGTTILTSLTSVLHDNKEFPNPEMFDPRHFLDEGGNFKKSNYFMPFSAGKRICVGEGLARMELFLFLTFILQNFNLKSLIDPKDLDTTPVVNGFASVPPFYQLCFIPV

[12] = Trypanosoma cruzi growth suppression in host cells – NIH3T3 host cells, beta-gal luminescence, confirmation (AID 2044); format: functional, cell-based;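 note: intracellular parasites grown in NIH/3T3 mouse fibroblasts as host cells; luminescent beta-galactosidase reporter signal from transgenic T. cruzi replicating inside host cells; inhibitors lower the luminescence signal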
[13] = NIH3T3 cell viability loss – ATP luminescence, mouse fibroblasts, counter-screen, dose response (AID 2010); format: functional, cell-based;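 note: cells exposed to compound for about 90 hours before reading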
[14] = NIH-3T3 fibroblast cytotoxicity, dose response, cytotoxicity control, cell-based, fluorescence, Alamar Blue, secondary assay (AID 2327); format: functional;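 note: NIH-3T3 mouse fibroblasts cultured with fluconazole at 8 µg/mL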
[15] = fluconazole-exposed Candida albicans growth modulators – fluorescence, retest, confirmation (AID 2467); format: functional, cell-based
[16] = target: T4, Heat shock factor protein 1 (Mus musculus, UniProt P38532); test: decrease of HSF1-responsive luciferase luminescence – cell-based, NIH3T3, dose retest, confirmation (AID 2382); format: functional;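 note: NIH3T3 fibroblasts with HSF1-driven luciferase reporter stressed by proteasome inhibitor MG132; luminescence from HSF1-driven luciferase expression after 8 hours of MG132 stress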
T4 sequence (P38532 whole entry): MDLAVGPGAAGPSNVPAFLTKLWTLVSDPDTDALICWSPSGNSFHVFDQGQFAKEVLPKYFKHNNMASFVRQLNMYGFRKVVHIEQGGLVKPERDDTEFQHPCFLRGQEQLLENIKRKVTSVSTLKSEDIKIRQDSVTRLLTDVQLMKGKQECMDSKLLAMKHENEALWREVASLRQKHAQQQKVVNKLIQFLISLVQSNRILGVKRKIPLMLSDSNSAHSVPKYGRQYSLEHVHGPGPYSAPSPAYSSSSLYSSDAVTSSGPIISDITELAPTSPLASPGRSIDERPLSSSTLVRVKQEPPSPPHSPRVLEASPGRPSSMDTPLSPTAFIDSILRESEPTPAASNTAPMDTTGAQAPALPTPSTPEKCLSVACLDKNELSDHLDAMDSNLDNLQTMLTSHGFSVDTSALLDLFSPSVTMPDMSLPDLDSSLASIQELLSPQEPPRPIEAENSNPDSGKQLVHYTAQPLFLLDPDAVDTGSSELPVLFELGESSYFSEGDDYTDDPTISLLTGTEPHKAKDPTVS

[17] = luciferase reporter signal suppression in cells – H4 neuroglioma cells, luminescence, dose response (AID 1990); format: functional, cell-based
INS1 = test: INS-1E survival protection against cytokine death – cell-based, luminescence, retest, dose response (AID 449756); format: functional; settings: Rattus norvegicus;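 note: cell death triggered by IL-1 beta plus TNF-alpha plus IFN-gamma mixture; protective hits raise ATP signal compared with cytokine alone wells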
[18] = Luminescence Cell-Based Dose Response HTS to Identify Inhibitors of 5'UTR Stem-Loop Driven Prion Protein mRNA Translation in H4 Neuroglioblastoma Cells. [Related pubchem assays: 1827 (Project Summary), 1813 (Primary HTS)]; format: functional
[19] = alpha-synuclein stem-loop luciferase translation blockers – H4 neuroglioma cells, luminescence, confirmation (AID 1988); format: functional, cell-based

CC(C)Cn1c(N)c(C(=O)COC(=O)/C=C/c2cccs2)c(=O)n(C)c1=O
IC50 [1]: > 50 µM (not active)

Oc1cc(-c2ccccc2)nc2nc(SCc3ccccc3)nn12
IC50 (Leucine aminopeptidase): 5.04 µM (active)

Cc1cccc(C)c1OCC(O)CN1CCC(CN2C(=O)c3cccc4cccc(c34)C2=O)CC1 (stereo unspecified)
CC50 [2]: 7.63 µM (active)
EC50 [3]: 9.53 µM (active)
EC50 (Streptococcus): 16.7 µM (active)
CC50 [4]: 23.4 µM (active)
EC50 [5]: 9.04 µM (active)
EC50 (Streptokinase A): 38.2 µM (active)
EC50 [6]: 11.7 µM (active)

OC(COc1cccc2ccccc12)CN1CCN(c2ccccc2Cl)CC1 (stereo unspecified)
IC50 [1]: 3.82 µM (not active)

O=C(c1ccccn1)N1CC(=O)N2[C@H](CO)[C@@H](c3ccc(C#CCc4ccccc4)cc3)[C@@H]2C1
AC50 [7]: 6.31 µM (active)

CCCC(=O)N1CC2(C1)CN(Cc1ccc(Cl)cc1)[C@H](CO)c1[nH]c3cc(OC)ccc3c12
AC50 [7]: 6.65 µM (active)

COc1ccc2c3c([nH]c2c1)[C@@H](CO)N(S(C)(=O)=O)CC31CCN(Cc2cccc(F)c2)CC1
AC50 [7]: 4.86 µM (active)

CC1(c2ccc(O)cc2)NC(=O)N(c2ccccc2)N1 (stereo unspecified)
AC50 [8]: 0.015 µM (active)
AC50 [9]: 4.14 µM (active)

C/C(=N/NC(=O)c1cc(-c2cccc([N+](=O)[O-])c2)[nH]n1)c1ccc(Cl)cc1
IC50 [1]: 13.6 µM (not active)

FC(F)(F)c1ccc(-c2n[nH]c(S)n2)cc1
AC50 [8]: 0.248 µM (active)
EC50 (cells [10]): > 350 µM (not active)
EC50 (cells [11]): > 350 µM (not active)

Clc1ccccc1-c1nnc2sc(-c3cccs3)nn12
IC50 [1]: 2.83 µM (not active)

OC[C@H]1CC[C@@H]2O[C@H](CCc3ccc(-c4ccc(F)cc4)cc3)[C@H](n3cc(C4CC4)nn3)C[C@@H]2O1
AC50 [7]: 5 µM (active)

COc1ccc(OCCCn2cccc2/C=C2/C(=N)N3OC(C)=CC3=NC2=O)cc1
IC50 (Leucine aminopeptidase): 10.9 µM (active)

CC(=O)Nc1ccc(NC(=O)CC2Nc3cccc4cccc(c34)NC2=O)cc1 (stereo unspecified)
AC50 [8]: 7.99 µM (active)
AC50 (Cytochrome P450 2C19): 39.8 µM (inconclusive)

N#Cc1c(Cl)cccc1Oc1ccc(S(=O)(=O)Nc2ccccc2)cc1
IC50 [1]: > 50 µM (not active)

N#C[C@@H]1[C@H](c2ccccc2/C=C/c2ccccc2)[C@H](CO)N1S(=O)(=O)c1ccc(F)cc1
AC50 [7]: 6.19 µM (active)

O=C(/C=C/c1c(F)cccc1Cl)c1ccc(F)cc1
CC50 [4]: > 40 µM (active)

CN(CCCNC(=O)c1cc2c(Cl)nc3ccccc3c2s1)Cc1ccccc1
EC50 [12]: 0.771 µM (active)
EC50 [13]: > 60 µM (not active)
CC50 [4]: 22.2 µM (active)

Cc1ccc(NC(=O)c2ccc(C(C)(C)C)cc2)cc1-n1cnnn1
IC50 [1]: 0.895 µM (not active)

Cc1c(/C=N\NC(=O)c2ccc(F)cc2)cnn1C
AC50 [8]: 4.3 µM (active)

O=C(CN1C(=O)c2ccccc2C1=O)Nc1ccc(-c2nc3ccccc3o2)cc1
IC50 [1]: 17.9 µM (not active)

COc1cccc(CN2[C@@H]3CNC[C@H]2[C@H]3c2ccc(-c3ccccc3OC)cc2)c1
AC50 [7]: 5.81 µM (active)

CNc1ccccc1C(=O)OC(C)C(=O)Nc1ccc(Cl)cn1 (stereo unspecified)
CC50 [4]: 25.3 µM (active)

S=C(NCc1ccco1)N/N=C/c1ccccc1Cl
IC50 [1]: 2.44 µM (not active)

CCNC(=O)c1cc2c(c(-c3cccc(-c4cc5ccccc5o4)c3)n1)[C@@H](CCO)N(C(=O)NC(C)C)C2
AC50 [7]: 6.29 µM (active)

COc1ccc(N2CCN(C(CNC(=O)C(C)C)c3ccc4c(c3)OCO4)CC2)cc1 (stereo unspecified)
AC50 [8]: 4.01 µM (active)

CC1CCCN(Cc2c(O)ccc3c(O)c(-c4nc5ccccc5s4)c(=N)oc23)C1 (stereo unspecified)
EC50 [3]: 18.9 µM (active)
EC50 [14]: 76.2 µM (active)
CC50 [4]: 17.2 µM (active)
EC50 [15]: > 38 µM (not active)
EC50 [6]: 13.9 µM (active)

C=CCn1c(Sc2nc(C)cs2)nc2c1c(=O)[nH]c(=O)n2C
CC50 [2]: 32.4 µM (active)
IC50 [1]: > 50 µM (not active)

Cc1cc(C)cc(NC(=O)C2CCN(c3nc(C)cc(C)n3)CC2)c1
IC50 (Leucine aminopeptidase): 105 µM (active)

Cc1ccc2nc(C)cc(N/N=C/c3cccnc3)c2c1
AC50 [8]: 6.08 µM (active)

CN(CC(=O)Nc1ccc(N2CCOCC2)cc1)Cc1cc(=O)n2ccsc2n1
IC50 [1]: < 0.4 µM (not active)

C(=N\Nc1ccc2ccccc2n1)/c1ccc2c(c1)OCCO2
CC50 [4]: > 40 µM (active)
EC50 [16]: < 0.16 µM (active)

COc1ccc(C)cc1Nc1n[n+](-c2ccccc2)c(-c2c(Cl)cccc2Cl)s1
EC50 [17]: > 120 µM (not active)
AC50 (INS1): 4.16 µM (active)
EC50 [18]: 12.6 µM (active)
CC50 [4]: 9.91 µM (active)
EC50 [19]: > 120 µM (not active)

O=C(CNCc1ccccc1)Nc1ccc(Oc2ccccc2)cc1
IC50 [1]: > 50 µM (not active)
